# Reference: patent US5508304A, “Glucagon antagonists and methods relating thereto” (ZymoGenetics, Inc., priority 1994, dated 1996)
# Key:
# [1] = system: forskolin-stimulated cAMP production; assay: Adenylate cyclase assay with forskolin, receptor-independent stimulation of cAMP production; type: biochemical, rat; details: presence and absence of 0.02 mM skyrin
# Experimental: (§1) Liver plasma membranes for use in adenylate cyclase assays were prepared essentially as described by Neville et al. (Biochim. Biophys. Acta 154:540-552, 1968) as modified by Pohl (Methods in Receptor Research, Blecher (ed.), New York, pp. 160-164, 1976). Twenty rats were euthanized by decapitation, and the livers were removed and cooled to 4° C. After cooling, the livers were maintained at 4° C. during the membrane preparation. The approximate volume of the livers was determined. Three volumes of medium (1 mM NaHCO3, 0.5 mM CaCl2) were added to the livers, and the liver tissue was roughly minced with scissors. The minced tissue was divided into two parts, and each part was homogenized for thirty seconds in a Waring-type blender at full speed. After homogenization, the homogenates were each transferred to a sieve with a 1.5 mm pore size, and the homogenates were strained through the sieve. […]
# (§2) The cAMP produced in each reaction was determined by assaying 10 μl of each sample using an Amersham Scintillation Proximity Assay kit (Amersham, Arlington Heights, Ill.).
# (§3) The specificity of the skyrin antagonist activity was assessed by replacing the serial dilutions of glucagon with serial dilutions of vasoactive intestinal peptide (VIP; Sigma Chemical Co., St. Louis, Mo.), calcitonin gene-related peptide (CGRP), forskolin (Calbiochem, San Diego, Calif.) and GTP-γS. […]
# [2] = molecular target: T1, glucagon receptor (Rattus norvegicus, UniProt P30082); assay: Adenylate cyclase assay: glucagon-stimulated cAMP production in liver plasma membranes (Amersham Scintillation Proximity Assay kit); type: biochemical; details: for cAMP response to glucagon, serial dilutions of test substance: fixed 5 nM glucagon stock, 5 μl per well; for inhibition of cAMP activity with increasing concentration of test substance (FIG. 7): fixed concentration of glucagon
# T1 construct: Liver plasma membranes for use in adenylate cyclase assays were prepared; from tissue; host or cells: rat liver plasma membranes
# T1 sequence (P30082 27-485): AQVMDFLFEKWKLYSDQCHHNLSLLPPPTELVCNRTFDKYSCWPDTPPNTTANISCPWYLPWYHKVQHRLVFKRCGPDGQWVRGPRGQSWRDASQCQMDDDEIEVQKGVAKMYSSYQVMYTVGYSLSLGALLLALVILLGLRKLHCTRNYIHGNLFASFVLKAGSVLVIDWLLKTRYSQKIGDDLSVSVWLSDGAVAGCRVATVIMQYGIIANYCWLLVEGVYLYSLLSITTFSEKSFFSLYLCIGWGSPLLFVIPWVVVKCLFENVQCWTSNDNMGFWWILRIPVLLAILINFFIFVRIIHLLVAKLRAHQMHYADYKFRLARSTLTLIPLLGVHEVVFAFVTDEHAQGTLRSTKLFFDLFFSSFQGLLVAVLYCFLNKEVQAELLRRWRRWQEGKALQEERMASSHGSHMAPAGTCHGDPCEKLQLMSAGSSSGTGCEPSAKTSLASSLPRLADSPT
# Experimental: Liver plasma membranes for use in adenylate cyclase assays were prepared essentially as described by Neville et al. (Biochim. Biophys. Acta 154:540-552, 1968) as modified by Pohl (Methods in Receptor Research, Blecher (ed.), New York, pp. 160-164, 1976). Twenty rats were euthanized by decapitation, and the livers were removed and cooled to 4° C. After cooling, the livers were maintained at 4° C. during the membrane preparation. The approximate volume of the livers was determined. Three volumes of medium (1 mM NaHCO3, 0.5 mM CaCl2) were added to the livers, and the liver tissue was roughly minced with scissors. The minced tissue was divided into two parts, and each part was homogenized for thirty seconds in a Waring-type blender at full speed. After homogenization, the homogenates were each transferred to a sieve with a 1.5 mm pore size, and the homogenates were strained through the sieve. The straining procedure was repeated for each homogenate through a finer screen. The strained homogenates were combined, and medium was added to a final volume of one liter. The homogenate was further homogenized with a Dounce homogenizer using eight vigorous strokes of the loose pestle. The homogenates were filtered through four layers of cheesecloth. The strained homogenates were centrifuged at approximately 150×g in a swinging bucket rotor for 20 minutes at 4° C. The supernalant was discarded, and the precipitate was resuspended in 500 ml of medium and homogenized in a Dounce homogenizer with three strokes of the loose pestle. The centrifugation was repeated, and the resulting precipitate was resuspended in 250 ml of medium. The homogenate was centrifuged as described, and the precipitate was suspended in 50 to 100 ml of medium. The suspension was homogenized in a Dounce homogenizer with three strokes of the loose pestle. Sucrose from a 69% sucrose solution was added to the suspension to a final sucrose concentration of 44.0±0.1%. The solution was centrifuged in an ultracentrifuge at approximately 100,000×g for 150 minutes. The membranes were removed from the top of the tube with a spoon. The membranes were stored at -80° C.
# Adenylate cyclase assays were carried out in the presence and absence of […] diluted in DMSO. Glucagon (Mallinkrodt Inc. St. Louis, Mo.) was dissolved in 10% acetic acid and lyophilized in 25-μg portions. The lyophilized glucagon was dissolved in 100 μl of 0.05M HCl and left for three minutes, after which the glucagon was serially diluted in buffer (2.5% human serum albumin (Grade 5, Sigma Chemical Co., St. Louis, Mo.) in 0.1M HEPES, 0.15M NaCl, pH 7.4) to final concentrations of between 0 and 100 nM. Aliquots of the membrane preparations were thawed and diluted with water to a protein concentration of approximately 3-5 mg/ml.
# For each 96-well assay plate, triplicate samples were assayed in the presence and absence of 20 μM skyrin. […] Five microliters of 20 μM skyrin in DMSO or 5 μl of DMSO alone was added to each well. Fifty microliters of incubation mixture (0.1% human serum albumin (Grade 5, Sigma), 15 mM MgCl2, 1 mM ATP, 0.9 mM IBMX (3-isobutyl-1-methylxanthine, Sigma), 15 mM creatine phosphate, and 5 mg/ml creatine phosphokinase in 50 mM Tris-HCl (pH 7.4) was then added to each well. […]
# The cAMP produced in each reaction was determined by assaying 10 μl of each sample using an Amersham Scintillation Proximity Assay kit (Amersham, Arlington Heights, Ill.). […]
# [3] = system: GTPγS-stimulated cAMP production; assay: Adenylate cyclase assay with GTPγS, receptor-independent stimulation of cAMP production; type: biochemical, rat
# Experimental: as §1, §2, §3
# [4] = molecular target: T2, CGRP-stimulated non-glucagon G protein-coupled receptors in liver membranes (Rattus norvegicus, UniProt Q63118); assay: Adenylate cyclase assay with CGRP in place of glucagon; type: biochemical; details: serial dilutions of CGRP, with and without skyrin; FIG. 5
# T2 construct: Liver plasma membranes for use in adenylate cyclase assays were prepared; from tissue; host or cells: rat liver plasma membranes
# T2 sequence (Q63118 24-464): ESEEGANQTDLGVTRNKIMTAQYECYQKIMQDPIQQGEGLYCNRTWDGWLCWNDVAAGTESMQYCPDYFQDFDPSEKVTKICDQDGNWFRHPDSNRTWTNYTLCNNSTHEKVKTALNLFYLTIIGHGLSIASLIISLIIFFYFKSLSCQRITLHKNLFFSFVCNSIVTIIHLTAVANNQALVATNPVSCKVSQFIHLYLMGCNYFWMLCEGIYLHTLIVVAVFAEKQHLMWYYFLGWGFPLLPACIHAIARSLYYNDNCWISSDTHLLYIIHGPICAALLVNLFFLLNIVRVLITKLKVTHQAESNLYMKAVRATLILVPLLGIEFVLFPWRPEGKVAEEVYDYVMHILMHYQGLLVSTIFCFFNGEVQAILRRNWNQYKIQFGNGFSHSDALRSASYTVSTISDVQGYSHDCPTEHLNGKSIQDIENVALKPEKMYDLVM
# T2 sequence (Q9JJ74 27-148 partner): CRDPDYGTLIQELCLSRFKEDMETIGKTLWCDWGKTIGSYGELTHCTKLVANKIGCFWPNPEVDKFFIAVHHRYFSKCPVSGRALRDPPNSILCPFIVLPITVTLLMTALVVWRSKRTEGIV
# Experimental: as §1, §2, §3
# [5] = Stark et al. 1978; cited from earlier work
# [6] = system: rice dwarf virus-RNA transcriptase; details: Yangai et al. 1976; cited from earlier work
# [7] = system: rat leukemia cell mitochondria; details: cited from earlier work
# [8] = molecular target: T3, glucagon binding to rat liver membranes (Rattus norvegicus, UniProt P30082); assay: 125I-glucagon binding to rat liver membranes; details: 20 μl of 56 μM skyrin vs DMSO; 30 min at 30° C.; FIG. 8
# T3 construct: 0.2 mg of rat liver membranes in 20 μl in water; from tissue; host or cells: rat liver membranes
# T3 sequence (P30082 27-485): as the sequence (P30082 27-485) above
# Experimental: Glucagon binding to rat liver membranes in the presence and absence of skyrin was determined in this experiment. Reactions tubes were prepared, each of which contained 20 μl of serially diluted unlabeled glucagon from 10^-5 M to 10^-10 M, 100 μl of 2× binding buffer (100 mM HEPES, pH 7.6), 200 mM NaCl, 2 mM EDTA, 2.0% bovine serum albumin (BSA), 1.0 mg/ml of bacitracin (Sigma Chem. Co.), approximately 0.1 nmoles of ^125 I-glucagon (Amersham) in 10 mM acetic acid/0.5% BSA with a specific activity of 2000 Ci/mmole, 20 μl of 56 μM skyrin (dissolved and diluted in DMSO) or DMSO, and water to achieve a final volume of 180 μl. The reaction was initiated by the addition of 0.2 mg of rat liver membranes in 20 μl in water. The reactions were incubated for 30 minutes at 30° C. After incubation the tubes were centrifuged at high speed in a microfuge for 10 minutes at 4° C. The supernatants were discarded, and the radioactivity in the pellets was quantitated with a gamma-counter (the level of radioactivity in a sample indicated the total binding of glucagon to the rat liver membranes). […] Based on this experiment, it is believed that the glucagon antagonists of this invention, including skyrin and skyrin analogs, function as glucagon antagonists by interrupting postglucagon binding events.
# [9] = molecular target: T4, VIP-stimulated non-glucagon G protein-coupled receptors in liver membranes (Rattus norvegicus, UniProt P30083); assay: Adenylate cyclase assay with VIP in place of glucagon; type: biochemical; details: serial dilutions of VIP, with and without skyrin; FIG. 4
# T4 construct: Liver plasma membranes for use in adenylate cyclase assays were prepared; from tissue; host or cells: rat liver plasma membranes
# T4 sequence (P30083 31-459): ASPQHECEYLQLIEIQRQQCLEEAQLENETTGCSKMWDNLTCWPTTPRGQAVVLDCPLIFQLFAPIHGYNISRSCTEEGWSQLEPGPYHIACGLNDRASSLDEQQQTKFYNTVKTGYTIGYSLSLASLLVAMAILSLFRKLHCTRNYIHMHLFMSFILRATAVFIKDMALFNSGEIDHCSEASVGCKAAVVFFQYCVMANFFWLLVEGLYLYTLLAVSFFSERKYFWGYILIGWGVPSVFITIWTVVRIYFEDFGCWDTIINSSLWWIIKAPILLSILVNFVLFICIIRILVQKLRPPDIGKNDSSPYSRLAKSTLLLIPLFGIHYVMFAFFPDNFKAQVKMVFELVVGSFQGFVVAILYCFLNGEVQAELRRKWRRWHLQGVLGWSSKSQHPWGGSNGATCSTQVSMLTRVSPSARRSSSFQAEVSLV
# Experimental: as §1, §2, §3
# [10] = system: rat liver mitochondria; details: cited from earlier work
cAMP levels produced by forskolin [1],"cAMP response to glucagon ([2]; 20 μM skyrin in DMSO vs DMSO alone, glucagon 0-100 nM, FIG. 3)","cAMP response to glucagon, serial dilutions of test substance [2]",inhibition of cAMP activity with increasing concentration of test substance (FIG. 7) [2],cAMP levels produced by GTPγS ([3]; presence and absence of 0.02 mM skyrin),GTPγS-stimulated cAMP levels (FIG. 6) ([3]; presence of 0.2 mM skyrin as printed),stimulation of cAMP production by CGRP [4],binding of glucagon to rat liver membrane [8],stimulation of cAMP production by VIP [9],Structure (SMILES),mutagenicity [5],inhibition of rice dwarf virus-RNA transcriptase [6],uncoupling of oxidative phosphorylation [7],uncoupling of oxidative phosphorylation [10]
unaffected,inhibited the cAMP response to glucagon,inhibited cAMP response to glucagon,increase in inhibition of cAMP activity,unaffected,uneffected,did not affect the stimulation,increased binding of glucagon,did not affect the stimulation,Cc1cc(O)c2c(c1)C(=O)c1c(c(O)cc(O)c1-c1c(O)cc(O)c3c1C(=O)c1cc(C)cc(O)c1C3=O)C2=O [skyrin],non-mutagenic,selectively inhibit,uncouple oxidative phosphorylation,uncouple oxidative phosphorylation
,,inhibited cAMP response to glucagon,increase in inhibition of cAMP activity,,,,,,Cc1cc(O)c2c(c1)C(=O)c1c(c(O)cc(O)c1-c1c(O)cc(O)c3c1C(=O)c1cc(CO)cc(O)c1C3=O)C2=O [oxyskyrine],,,,
